For test [1], the target named is hGYS1 enzyme (recombinant hGYS1/GN1 protein) (Homo sapiens (Human), UniProt P13807). Kind of test: GYS1 coupled enzyme assay (PK/LDH). In kind it is biochemical. The settings on record: hGYS1/GN1 50 nM, UDP-Glucose 0.8 mM, G6P 1 mM; geometric mean of at least 2 runs.
Test [2] has as its system hGYS1 enzyme / glycogen synthesis in HeLa cells. Kind of test: GYS1 cell based assay (glycogen synthesis, Glucose-glo). More on the design: species or system human. The settings on record: 24 h incubation, 20 mM glucose, geometric mean of at least 2 runs. An outline of the steps:
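HeLa cells starved 24 h in medium containing only 1× Glutamax were plated onto compound in medium with 20 mM glucose (1% DMSO final) for 24 h, 37 °C, 5% CO2. Acid lysates were Tris-quenched, glucoamylase-digested (pH 5.3, 1 h, 37 °C) and read by Glucose-glo luminescence. IC50 came from Hill fits, as geometric mean of ≥2 runs.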

Usually IC50 stands for the concentration that inhibits the measured activity by half.

Sequence of hGYS1 enzyme (recombinant hGYS1/GN1 protein) (P13807 whole entry): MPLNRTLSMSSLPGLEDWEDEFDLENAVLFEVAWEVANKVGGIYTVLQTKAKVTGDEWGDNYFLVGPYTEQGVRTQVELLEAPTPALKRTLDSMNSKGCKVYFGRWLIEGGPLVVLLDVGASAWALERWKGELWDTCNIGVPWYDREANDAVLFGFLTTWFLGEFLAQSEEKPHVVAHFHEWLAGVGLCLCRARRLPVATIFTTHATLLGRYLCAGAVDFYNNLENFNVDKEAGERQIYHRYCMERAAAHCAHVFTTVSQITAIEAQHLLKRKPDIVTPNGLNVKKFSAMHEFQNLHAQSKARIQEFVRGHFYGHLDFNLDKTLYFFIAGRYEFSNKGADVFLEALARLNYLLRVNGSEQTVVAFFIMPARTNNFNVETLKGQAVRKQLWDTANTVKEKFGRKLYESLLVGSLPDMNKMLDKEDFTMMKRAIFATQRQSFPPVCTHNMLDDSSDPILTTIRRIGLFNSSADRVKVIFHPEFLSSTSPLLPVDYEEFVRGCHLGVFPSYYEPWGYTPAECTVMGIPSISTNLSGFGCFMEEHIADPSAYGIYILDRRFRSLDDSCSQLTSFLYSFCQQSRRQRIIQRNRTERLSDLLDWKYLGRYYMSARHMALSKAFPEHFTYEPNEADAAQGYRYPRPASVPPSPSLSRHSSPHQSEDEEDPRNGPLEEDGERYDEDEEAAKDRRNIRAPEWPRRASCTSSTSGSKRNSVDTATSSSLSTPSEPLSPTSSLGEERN
Sequence of hGYS1 enzyme (recombinant hGYS1/GN1 protein) (P46976 whole entry partner): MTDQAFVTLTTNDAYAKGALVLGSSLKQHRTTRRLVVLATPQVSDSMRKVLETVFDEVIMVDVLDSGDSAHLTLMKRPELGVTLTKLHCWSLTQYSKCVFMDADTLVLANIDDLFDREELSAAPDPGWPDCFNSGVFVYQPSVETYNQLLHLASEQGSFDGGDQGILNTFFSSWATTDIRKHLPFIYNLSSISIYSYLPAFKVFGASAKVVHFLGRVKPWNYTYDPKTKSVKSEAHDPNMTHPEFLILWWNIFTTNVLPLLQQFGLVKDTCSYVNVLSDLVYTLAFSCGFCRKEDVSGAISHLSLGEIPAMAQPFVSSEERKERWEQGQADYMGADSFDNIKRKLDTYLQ

Take `CCn1cccc(CC(=O)N2C[C@H](F)C[C@H]2C(=O)N[C@@H](c2ccccc2)c2ccc(C3CC(F)(F)C3)c(F)n2)c1=O` [Compound 526, (2S,4R)-N-[(S)-[5-(3,3-difluorocyclobutyl)-6-fluoropyridin-2-yl](phenyl)methyl]-1-[2-(1-ethyl-2-oxo-1,2-dihydropyridin-3-yl)acetyl]-4-fluoropyrrolidine-2-carboxamide]: the 50% inhibitory concentration (IC50) in test [1] worked out at 0.011 µM; in test [2] (Homo sapiens, HeLa, 24 h) it was 0.13 µM.

As for `Cc1nccc(NCC(=O)N2C[C@H](F)C[C@H]2C(=O)N[C@H](c2ccccc2)c2ccc(C3CC3)c(F)n2)n1` [Compound 720, (2S,4R)-N-[(R)-(5-cyclopropyl-6-fluoropyridin-2-yl)(phenyl)methyl]-4-fluoro-1-{2-[(2-methylpyrimidin-4-yl)amino]acetyl}pyrrolidine-2-carboxamide], the concentration for half-maximal inhibition (IC50) was 2.45 µM in test [1] and over 30 µM in test [2] (Homo sapiens, HeLa, 24 h).

As for `CCn1cc(CC(=O)N2C[C@H](F)C[C@H]2C(=O)N[C@@H](c2ccccc2)c2ccc(C(C)C)c(F)n2)cc(C)c1=O` [Compound 796, (2S,4R)-1-[2-(1-ethyl-5-methyl-6-oxo-1,6-dihydropyridin-3-yl)acetyl]-4-fluoro-N-[(S)-[6-fluoro-5-(propan-2-yl)pyridin-2-yl](phenyl)methyl] pyrrolidine-2-carboxamide], the half-maximal inhibitory concentration (IC50) in test [1] turned out to be 0.005 µM; in test [2] (Homo sapiens, HeLa, 24 h), 0.11 µM.

Turning to `Cc1cc(C(NC(=O)[C@@H]2C[C@@H](F)CN2C(=O)Cc2cnn[nH]2)c2ccccc2)cc(F)c1C(C)C` (single isomer, unassigned) [Compound 678, (2S,4R)-4-fluoro-N-[(R) or (S)-[3-fluoro-5-methyl-4-(propan-2-yl)phenyl](phenyl)methyl]-1-[2-(1H-1,2,3-triazol-5-yl)acetyl]pyrrolidine-2-carboxamide], the IC50 was 1.06 µM in test [1] and over 10 µM in test [2].

Turning to `CC(=O)N(C)[C@H](C)C(=O)N1C[C@H](F)C[C@H]1C(=O)N[C@@H](c1ccccc1)c1ccc(C(C)C)cc1` [Compound 145, (2S,4R)-4-fluoro-1-[(2R)-2-(N-methylacetamido)propanoyl]-N-[(S)-phenyl[4-(propan-2-yl)phenyl]methyl]pyrrolidine-2-carboxamide], the IC50 is 0.915 µM in test [1] and over 10 µM in test [2] (Homo sapiens, HeLa, 24 h).

In the case of `COc1nc(C(NC(=O)[C@@H]2C[C@@H](F)CN2C(=O)Cc2cnn[nH]2)c2ccccc2)ccc1C(C)C` (single isomer, unassigned) [Compound 612, (2S,4R)-4-fluoro-N-[(S) or (R)-[6-methoxy-5-(propan-2-yl)pyridin-2-yl] (phenyl)methyl]-1-[2-(1H-1,2,3-triazol-5-yl)acetyl]pyrrolidine-2-carboxamide], the IC50 is 2.18 µM in test [1] and over 28.9 µM in test [2] (Homo sapiens, HeLa, 24 h).

Consider `O=C(N[C@H](c1ccccc1)c1ccc(C2CC(F)(F)C2)c(F)c1)[C@@H]1C[C@@H](F)CN1C(=O)CNC(=O)N1CCC1` [Compound 545, (2S,4R)-1-((azetidine-1-carbonyl)glycyl)-N—((R)-(4-(3,3-difluorocyclobutyl)-3-fluorophenyl)(phenyl)methyl)-4-fluoropyrrolidine-2-carboxamide], for which the 50% inhibitory concentration (IC50) is 1.68 µM in test [1] and over 30 µM in test [2] (Homo sapiens, HeLa, 24 h).

On to `O=C(N[C@@H](c1ccccc1)c1ccc(C2CC2)c(F)n1)[C@@H]1C[C@@H](F)CN1C(=O)CNC(=O)N(Cc1ccccc1)C(F)(F)F` [Compound 744, (2S,4R)-1-(2-{[benzyl(trifluoromethyl)carbamoyl]amino}acetyl)-N-[(S)-(5-cyclopropyl-6-fluoropyridin-2-yl)(phenyl)methyl]-4-fluoropyrrolidine-2-carboxamide], for which the 50% inhibitory concentration (IC50) in test [1] stood at 0.046 µM; in test [2] (Homo sapiens, HeLa, 24 h), 1.52 µM.

With `O=C(N[C@@H](c1ccccc1)c1ccc(C2CC2)c(F)n1)[C@@H]1C[C@@H](F)CN1C(=O)Cn1cnnc1C(F)F` [Compound 759, (2S,4R)-N-[(S)-(5-cyclopropyl-6-fluoropyridin-2-yl)(phenyl)methyl]-1-{2-[3-(difluoromethyl)-4H-1,2,4-triazol-4-yl]acetyl}-4-fluoropyrrolidine-2-carboxamide], the 50% inhibitory concentration (IC50) in test [1] was 0.018 µM; in test [2] (Homo sapiens, HeLa, 24 h), 0.59 µM.

On to `CNC(=O)NCc1cccc([C@H](NC(=O)[C@@H]2C[C@@H](F)CN2C(=O)Cc2cnn[nH]2)c2ccc(C(C)C)c(F)n2)c1` [Compound 656, (2S,4R)-4-fluoro-N-[(S)-[6-fluoro-5-(propan-2-yl)pyridin-2-yl](3-{[(methylcarbamoyl)amino]methyl}phenyl)methyl]-1-[2-(1H-1,2,3-triazol-5-yl)acetyl]pyrrolidine-2-carboxamide], for which the half-inhibitory concentration (IC50) in test [1] came to 1.3 µM; in test [2] (Homo sapiens, HeLa, 24 h), 10.8 µM.

For the compound `O=C(N[C@@H](c1ccccc1)c1ccc(C2CC2)c(F)c1)[C@@H]1C[C@@H](F)CN1C(=O)Cc1cc2ccccc2[nH]1` [Compound 460, (2S,4R)-N-[(S)-(4-cyclopropyl-3-fluorophenyl)(phenyl)methyl]-4-fluoro-1-[2-(1H-indol-2-yl)acetyl] pyrrolidine-2-carboxamide], the 50% inhibitory concentration (IC50) in test [1] was 0.187 µM; in test [2] (Homo sapiens, HeLa, 24 h) it was 2.42 µM.

For `O=C(N[C@@H](c1ccccc1)c1ccc(C2CC2)c(F)n1)[C@@H]1C[C@@H](F)CN1C(=O)Cn1nncc1C(F)(F)F` [Compound 745, (2S,4R)-N-[(S)-(5-cyclopropyl-6-fluoropyridin-2-yl)(phenyl)methyl]-4-fluoro-1-{2-[5-(trifluoromethyl)-1H-1,2,3-triazol-1-yl]acetyl}pyrrolidine-2-carboxamide], the IC50 in test [1] was determined as 0.024 µM; in test [2] (Homo sapiens, HeLa, 24 h), 0.51 µM.

For `O=C(N[C@H](c1ccccc1)c1ccc(C2CC2)c(F)n1)[C@@H]1C[C@@H](F)CN1C(=O)Cc1cccn2c(=O)[nH]nc12` [Compound 718, (2S,4R)-N-[(R)-(5-cyclopropyl-6-fluoropyridin-2-yl)(phenyl)methyl]-4-fluoro-1-(2-{3-oxo-2H,3H-[1,2,4]triazolo[4,3-a]pyridin-8-yl}acetyl)pyrrolidine-2-carboxamide], the concentration for half-maximal inhibition (IC50) in test [1] was 2.62 µM; in test [2] (Homo sapiens, HeLa, 24 h), over 30 µM.

Take `CC(C)c1ccc([C@@H](NC(=O)[C@@H]2C[C@@H](F)CN2C(=O)Cc2noc(=O)[nH]2)c2ccccc2)nc1` [Compound 286, (2S,4R)-4-fluoro-1-[2-(5-oxo-4,5-dihydro-1,2,4-oxadiazol-3-yl)acetyl]-N-[(S)-phenyl[5-(propan-2-yl)pyridin-2-yl]methyl]pyrrolidine-2-carboxamide]: the IC50 is 0.147 µM in test [1] and over 30 µM in test [2] (Homo sapiens, HeLa, 24 h).

Turning to `CCn1cc(CC(=O)N2C[C@H](F)C[C@H]2C(=O)N[C@@H](c2ccccc2)c2ccc(C(C)C)c(F)n2)ncc1=O` [Compound 797, (2S,4R)-1-[2-(4-ethyl-5-oxo-4,5-dihydropyrazin-2-yl)acetyl]-4-fluoro-N-[(S)-[6-fluoro-5-(propan-2-yl)pyridin-2-yl](phenyl)methyl] pyrrolidine-2-carboxamide], the concentration for half-maximal inhibition (IC50) turned out to be 0.016 µM in test [1] and 0.29 µM in test [2] (Homo sapiens, HeLa, 24 h).

Take `Cc1ncccc1C(NC(=O)[C@@H]1C[C@@H](F)CN1C(=O)Cc1cnn[nH]1)c1ccc(C2(C)CC2)c(F)c1` (single isomer, unassigned) [Compound 627, (2S,4R)-4-fluoro-N-[(R) or (S)-[3-fluoro-4-(1-methylcyclopropyl)phenyl](2-methylpyridin-3-yl)methyl]-1-[2-(1H-1,2,3-triazol-5-yl)acetyl]pyrrolidine-2-carboxamide]: the half-inhibitory concentration (IC50) stood at 1.62 µM in test [1] and 29.5 µM in test [2] (Homo sapiens, HeLa, 24 h).

For the compound `Cn1c(CC(=O)N2C[C@H](F)C[C@H]2C(=O)N[C@@H](c2ccccc2)c2ccc(C3CC3)c(F)c2)noc1=O` [Compound 494, (2S,4R)-N-[(S)-(4-cyclopropyl-3-fluorophenyl)(phenyl)methyl]-4-fluoro-1-[2-(4-methyl-5-oxo-4,5-dihydro-1,2,4-oxadiazol-3-yl)acetyl]pyrrolidine-2-carboxamide], the concentration for half-maximal inhibition (IC50) in test [1] is 0.661 µM; in test [2] (Homo sapiens, HeLa, 24 h), 12.4 µM.

For the compound `Cn1cc(CC(=O)N2C[C@H](F)C[C@H]2C(=O)N[C@@H](c2ccccc2)c2ccc(C3CC3)c(F)n2)c(C(F)F)n1` [Compound 749, (2S,4R)-N-[(S)-(5-cyclopropyl-6-fluoropyridin-2-yl)(phenyl)methyl]-1-{2-[3-(difluoromethyl)-1-methyl-1H-pyrazol-4-yl]acetyl}-4-fluoropyrrolidine-2-carboxamide], the IC50 in test [1] was 0.006 µM; in test [2] (Homo sapiens, HeLa, 24 h), 0.25 µM.

On to `CC(=O)N1CCOCC1C(=O)N1C[C@H](F)C[C@H]1C(=O)N[C@@H](c1ccccc1)c1ccc(C(C)C)cc1` (stereo partly drawn) [Compound 149, (2S,4R)-1-(4-acetylmorpholine-3-carbonyl)-4-fluoro-N-[(S)-phenyl[4-(propan-2-yl)phenyl]methyl]pyrrolidine-2-carboxamide], for which the 50% inhibitory concentration (IC50) in test [1] is 0.332 µM; in test [2] (Homo sapiens, HeLa, 24 h), over 10 µM.

`CC(=O)N1C[C@H](F)C[C@H]1C(=O)NC(c1cccc(-c2ccnn2C)c1)c1ccc(C(C)C)c(F)n1` (single isomer, unassigned) [Compound 695, (2S,4R)-1-acetyl-4-fluoro-N-[(S) or (R)-[6-fluoro-5-(propan-2-yl)pyridin-2-yl][3-(1-methyl-1H-pyrazol-5-yl)phenyl]methyl] pyrrolidine-2-carboxamide]: the IC50 in test [1] is 0.929 µM; in test [2] (Homo sapiens, HeLa, 24 h), over 26.3 µM.

As to `O=C(NC(c1ccc(C2CC2)c(F)n1)c1ccccc1F)[C@@H]1C[C@@H](F)CN1C(=O)Cn1nnnc1C(F)F` (single isomer, unassigned) [Compound 657, (2S,4R)-N-[(S) or (R)-(5-cyclopropyl-6-fluoropyridin-2-yl)(2-fluorophenyl)methyl]-1-{2-[5-(difluoromethyl)-1H-1,2,3,4-tetrazol-1-yl]acetyl}-4-fluoropyrrolidine-2-carboxamide], the IC50 turned out to be 0.127 µM in test [1] and 1.5 µM in test [2] (Homo sapiens, HeLa, 24 h).
